A word on the EC50: it is the midpoint of the concentration-response curve.

The source of these data is ChEMBL document CHEMBL1141633, “Synthesis and biological evaluation of chalcones as inhibitors of the voltage-gated potassium channel Kv1.3” (Bioorg Med Chem Lett, 2008).

T1 sequence (P22001 whole entry): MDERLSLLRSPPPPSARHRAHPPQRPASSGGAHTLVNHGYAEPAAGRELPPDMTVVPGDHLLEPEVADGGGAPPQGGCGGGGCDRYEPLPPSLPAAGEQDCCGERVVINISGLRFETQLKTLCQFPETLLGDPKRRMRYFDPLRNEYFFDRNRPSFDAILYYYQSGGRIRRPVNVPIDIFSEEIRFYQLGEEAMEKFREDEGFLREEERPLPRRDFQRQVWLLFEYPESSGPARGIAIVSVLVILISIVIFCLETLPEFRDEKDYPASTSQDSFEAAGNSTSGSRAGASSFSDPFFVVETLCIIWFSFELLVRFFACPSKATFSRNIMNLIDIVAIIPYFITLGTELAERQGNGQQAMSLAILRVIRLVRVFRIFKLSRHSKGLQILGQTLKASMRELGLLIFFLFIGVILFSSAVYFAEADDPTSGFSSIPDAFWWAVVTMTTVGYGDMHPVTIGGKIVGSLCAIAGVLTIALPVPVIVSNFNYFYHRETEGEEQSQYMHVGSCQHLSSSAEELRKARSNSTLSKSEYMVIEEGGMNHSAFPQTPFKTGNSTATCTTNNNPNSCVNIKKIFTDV

One assay concerns the target T1, Potassium voltage-gated channel subfamily A member 3 (Homo sapiens, UniProt P22001). The assay is described as follows: Inhibition in Kv1.3 expressed in human Jurkat cells by patch clamp method. Format: cell-based.
For the molecule `COc1cccc(/C=C(\C)C(=O)c2c(O)c(OC)c3occc3c2OC)c1`, it took 3000 nM to reach a half-maximal effect (EC50).
On to `COc1cccc(/C=C/C(=O)c2cc3ccoc3c(OC)c2O)c1`, for which the EC50 came out at 1700 nM.
In turn, `COc1cccc(/C=C/C(=O)c2cc(OC)c3occc3c2OC)c1` had an EC50 of 2400 nM.
Still for that read-out and setting: the same measure for `COc1c(C(=O)/C=C/c2ccccc2)cc(OC)c2occc12`: 2400 nM.
Same read-out and setting: in the case of `COc1cccc(/C=C/C(=O)c2c(O)c(OC)c3occc3c2OC)c1` it was 900 nM.

For the next assay, the target named is T1, Potassium voltage-gated channel subfamily A member 3. The assay is described as follows: Inhibition in Kv1.3 expressed in […] by patch clamp method. (In patch-clamp work, channel activity is measured electrically.)
In turn, `COc1c(C(=O)/C=C/c2ccccc2)c(O)cc2occc12` displayed an EC50 of 17000 nM.
For `COc1c(C(=O)/C=C/c2ccccc2)c(O)c(OC)c2occc12`, the response was half-maximal at 400 nM (EC50).
The same measure, in the same setting: in the case of `COc1cccc(/C=C/C(=O)c2c(O)c(OC)c3occc3c2OC)c1` it was 800 nM.
